# Measured values as given in BindingDB's records for doi:10.1016/j.bmc.2015.09.025 (Sookmyung Women'S University, 2015).
# pIC50: −log10 of the molar value.
# Test: Antiosteoclast activity in mouse BMM cells assessed as reduction of RANKL-induced osteoclasts differentiation by measuring TRAP positive multinucleated cells after 4 days by light microscopy
row,pIC50,SMILES
1,6.24,COc1ccc(Nc2nc3cc(NC(=O)CCCCOc4ccc(/C(N)=N/O)cc4)ccc3o2)cc1
2,< 4.70,CC(c1cc2ccccc2s1)N(O)C(N)=O (racemic) [Leutrol]
3,6.25,N/C(=N\O)c1ccc(OCCCCC(=O)Nc2ccc3oc(Nc4ccccc4)nc3c2)cc1
4,5.88,CCc1ccc(Nc2nc3cc(NC(=O)CCCCOc4ccc(/C(N)=N/O)cc4)ccc3o2)cc1
